Laboratory results from patent US9428504B2, “7-hydroxy-spiropipiperidine indolinyl antagonists of P2Y1 receptor” (BRISTOL-MYERS SQUIBB COMPANY, priority 2012, dated 2016).
Counter-ions that a name gives are not always drawn.

What was measured:
[1] = target: cloned human P2Y1 receptors (Homo sapiens (Human), UniProt P47900); assay: Binding Assay B: Scintillation Proximity Assay (SPA) for P2Y1 binding; settings: SPA, [33P] 2MeS-ADP displacement; read-out: P2Y1 Ki (nM) using binding assay B
Procedure, shortened: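 Membranes with ~15 fmol receptor (1.7 μg total protein) incubated with 0.3 nM [^33P]-labelled radioligand for 1 h at room temperature to completion. After centrifugation and removal of aqueous phase, bound radioactivity read by scintillation proximity; inhibition of radioligand binding measured.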

[2] = system: human platelet rich plasma (PRP); assay: ADP induced platelet aggregation assay; settings: Homo sapiens, Platelet, read-out: PA IC50 (μM) @ 10 μM ADP, platelet aggregation induced by 10 μM ADP, human PRP
Experimental: The ability of P2Y1 antagonists covered in the present invention to inhibit platelet aggregation induced by 10 μM ADP was tested using human platelet rich plasma (PRP) as described in Platelet Protocols: Research and Clinical Laboratory Procedures (White, M. M. et al., Academic Press (1999)). Human blood was collected in 30 μM (final concentration in blood) argatroban (GSK) as the anticoagulant at a ratio of 1 ml per 9 ml of blood. The PRP was isolated by centrifugation at 170 g for 12 minutes. The platelet poor plasma (PPP) was used as the blank for optical aggregometry. Compounds of the present invention in DMSO solution was preincubated with 250 μl PRP at 37° C. for 1 minute with stirring speed of 1000 rpm. Aggregation was initiated by addition of 2.5 μl of 1 mM ADP (Chrono-log, Havertown, Pa.) for a final ADP concentration of 10 μM. Platelet aggregation was monitored using Optical Aggregometer (Chrono-log, Havertown, Pa.) and the area under the curve (AUC) at 5 minute was measured. IC50 was calculated using vehicle control as 0% inhibition.

Chain of cloned human P2Y1 receptors (P47900 whole entry): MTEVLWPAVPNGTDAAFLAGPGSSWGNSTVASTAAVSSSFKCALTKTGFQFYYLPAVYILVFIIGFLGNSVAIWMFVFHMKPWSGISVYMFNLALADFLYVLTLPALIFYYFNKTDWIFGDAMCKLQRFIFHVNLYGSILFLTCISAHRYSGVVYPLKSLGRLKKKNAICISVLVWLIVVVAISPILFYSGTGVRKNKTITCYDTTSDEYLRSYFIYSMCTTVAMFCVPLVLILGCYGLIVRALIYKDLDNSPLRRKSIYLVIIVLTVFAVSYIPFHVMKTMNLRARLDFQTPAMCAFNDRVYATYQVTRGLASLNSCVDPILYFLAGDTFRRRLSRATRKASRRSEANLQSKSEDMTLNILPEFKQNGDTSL

Row | SMILES | Ki [1] | IC50 [2]
1 | CC(C)(C)CN1CCC2(CC1)CN(c1ccccc1NC(=O)Nc1nc3c(s1)CCCC3)c1c(O)ccc(Cl)c12 [Example 45, 1-(2-(4-Chloro-7-hydroxy-1′-neopentylspiro[indoline-3,4′-piperidine]-1-yl)phenyl)-3-(4,5,6,7-tetrahydrobenzo[d]thiazol-2-yl)urea, TFA] | 9.5 nM | 0.3 µM
2 | CC(C)(C)CN1CCC2(CC1)CN(c1ccccc1NC(=O)Nc1ccc(C(C)(C)C)cc1)c1c(O)ccc(C(F)(F)F)c12 [Example 11, 1-(4-tert-Butylphenyl)-3-(2-(7-hydroxy-1′-neopentyl-4-(trifluoromethyl)spiro[indoline-3,4′-piperidine]-1-yl)phenyl)urea] | 7.9 nM | 0.1 µM
3 | CC(C)(C)CN1CCC2(CC1)CN(c1ccccc1NC(=O)Nc1nc3ccccc3s1)c1c(O)ccc(Cl)c12 [Example 53, 1-(Benzo[d]thiazol-2-yl)-3-(2-(4-chloro-7-hydroxy-1′-neopentylspiro[indoline-3,4′-piperidine]-1-yl)phenyl)urea, TFA] | 7.5 nM | 0.5 µM
4 | CC(C)CN1CCC2(CC1)CN(c1ccccc1NC(=O)Nc1ccc(C(F)(F)F)cc1)c1c(O)ccc(Cl)c12 [Example 64, 1-(2-(4-Chloro-7-hydroxy-1′-isobutylspiro[indoline-3,4′-piperidine]-1-yl)phenyl)-3-(4-(trifluoromethyl)phenyl)urea] | 6.5 nM | 1 µM
5 | CC(C)(C)CN1CCC2(CC1)CN(c1ccccc1NC(=O)Nc1nc3ccc(Cl)cc3s1)c1c(O)ccc(-c3nc4cccc(Cl)c4s3)c12 [Example 124, 1-(6-Chlorobenzo[d]thiazol-2-yl)-3-(2-(4-(7-chlorobenzo[d]thiazol-2-yl)-7-hydroxy-1′-neopentylspiro[indoline-3,4′-piperidin]-1-yl)phenyl)urea] | 51.5 nM | 1 µM
6 | CC(C)(C)CN1CCC2(CC1)CN(c1ccc(C#N)cc1NC(=O)Nc1nc3ccc(F)cc3s1)c1c(O)ccc(Cl)c12 [Example 70, 1-(2-(4-Chloro-7-hydroxy-1′-neopentylspiro[indoline-3,4′-piperidine]-1-yl)-5-cyanophenyl)-3-(6-fluorobenzo[d]thiazol-2-yl)urea] | 29.4 nM | 1 µM
7 | COc1ccc2nc(NC(=O)Nc3ccccc3N3CC4(CCN(CC(C)(C)C)CC4)c4c(-c5nc6cc(F)ccc6s5)ccc(O)c43)sc2c1 [Example 146, 1-(2-(4-(5-Fluorobenzo[d]thiazol-2-yl)-7-hydroxy-1′-neopentylspiro[indoline-3,4′-piperidin]-1-yl)phenyl)-3-(6-methoxybenzo[d]thiazol-2-yl)urea] | 11.2 nM | 0.6 µM
8 | CC(C)(C)CN1CCC2(CC1)CN(c1ccccc1NC(=O)Nc1csc(C(F)(F)F)n1)c1c(O)cc(F)c(-c3ccc(Cl)cc3)c12 [Example 158, 1-(2-(4-(4-Chlorophenyl)-5-fluoro-7-hydroxy-1′-neopentylspiro[indoline-3,4′-piperidin]-1-yl)phenyl)-3-(2-(trifluoromethyl)thiazol-4-yl)urea] | 15.4 nM | 0.3 µM
9 | CC(C)(C)CN1CCC2(CC1)CN(c1ccccc1NC(=O)Nc1nc3ccc(F)cc3s1)c1c(O)cc(F)c(F)c12 [Example 95, 1-(2-(4,5-Difluoro-7-hydroxy-1′-neopentylspiro [indoline-3,4′-piperidine]-1-yl)phenyl)-3-(6-fluorobenzo[d]thiazol-2-yl)urea] | 14.7 nM | 0.5 µM
10 | CC(C)(C)CN1CCC2(CC1)CN(c1ccccc1NC(=O)Nc1nc3ccc(Cl)cc3s1)c1c(O)cc(F)c(-c3nc4cc(Cl)ccc4s3)c12 [Example 141, 1-(6-Chlorobenzo[d]thiazol-2-yl)-3-(2-(4-(5-chlorobenzo[d]thiazol-2-yl)-5-fluoro-7-hydroxy-1′-neopentylspiro[indoline-3,4′-piperidin]-1-yl)phenyl)urea] | 33.9 nM | 0.9 µM
11 | CC(C)(C)CN1CCC2(CC1)CN(c1ccccc1NC(=O)Nc1ccc(OC(F)(F)F)cc1)c1c(O)cc(F)c(-c3ccc(F)cc3)c12 [Example 155, 1-(2-(5-Fluoro-4-(4-fluorophenyl)-7-hydroxy-1′-neopentylspiro[indoline-3,4′-piperidin]-1-yl)phenyl)-3-(4-(trifluoromethoxy)phenyl)urea] | 22.5 nM | 0.1 µM
12 | CC(C)(C)CN1CCC2(CC1)CN(c1ccccc1NC(=O)Nc1csc(Cl)c1)c1c(O)ccc(C(F)(F)F)c12 [Example 26, 1-(5-Chlorothiophen-3-yl)-3-(2-(7-hydroxy-1′-neopentyl-4-(trifluoromethyl)spiro[indoline-3,4′-piperidine]-1-yl)phenyl)urea] | 7.3 nM | 0.2 µM
13 | CC(C)(C)CN1CCC2(CC1)CN(c1ccccc1NC(=O)Nc1nc3ccc(Cl)nc3s1)c1c(O)ccc(-c3nc4ccc(Cl)cc4s3)c12 [Example 125, 1-(2-(4-(6-Chlorobenzo[d]thiazol-2-yl)-7-hydroxy-1′-neopentylspiro[indoline-3,4′-piperidin]-1-yl)phenyl)-3-(5-chlorothiazolo[5,4-b]pyridin-2-yl)urea] | 21.6 nM | 0.9 µM
14 | CC(C)(C)CN1CCC2(CC1)CN(c1ccccc1NC(=O)Nc1nc3ccc(F)nc3s1)c1c(O)ccc(Cl)c12 [Example 170] | 6.5 nM | 0.5 µM
15 | CC(C)(C)CN1CCC2(CC1)CN(c1ccccc1NC(=O)Nc1ccc(F)cc1F)c1c(O)ccc(C(F)(F)F)c12 [Example 20, 1-(2,4-Difluorophenyl)-3-(2-(7-hydroxy-1′-neopentyl-4-(trifluoromethyl)spiro[indoline-3,4′-piperidine]-1-yl)phenyl)urea] | 3.2 nM | 0.2 µM
16 | CC(C)(C)CN1CCC2(CC1)CN(c1ccccc1NC(=O)Nc1ccc(OC(F)(F)F)cc1)c1c(O)ccc(C#N)c12 [Example 8, 1-(2-(4-Cyano-7-hydroxy-1′-neopentylspiro[indoline-3,4′-piperidine]-1-yl)phenyl)-3-(4-(trifluoromethoxy)phenyl)urea] | 5.7 nM | 1.1 µM
17 | CC(C)(C)CN1CCC2(CC1)CN(c1ccccc1NC(=O)Nc1ccc(C(F)(F)F)cc1)c1c(O)ccc(F)c12 [Example 37, 1-(2-(4-Fluoro-7-hydroxy-1′-neopentylspiro[indoline-3,4′-piperidine]-1-yl)phenyl)-3-(4-(trifluoromethyl)phenyl)urea] | 7.2 nM | 1 µM
18 | CC(C)c1nc(NC(=O)Nc2ccccc2N2CC3(CCN(CC(C)(C)C)CC3)c3c(C(F)(F)F)ccc(O)c32)cs1 [Example 28, 1-(2-(7-Hydroxy-1′-neopentyl-4-(trifluoromethyl)spiro[indoline-3,4′-piperidine]-1-yl)phenyl)-3-(2-isopropylthiazol-4-yl)urea] | 6.6 nM | 0.8 µM
19 | CCN(CC)S(=O)(=O)c1ccc(O)c2c1C1(CCN(CC(C)(C)C)CC1)CN2c1ccccc1NC(=O)Nc1ccc(OC(F)(F)F)cc1 [Example 91, N,N-Diethyl-7-hydroxy-1′-neopentyl-1-(2-(3-(4-(trifluoromethoxy)phenyl)ureido)phenyl)spiro [indoline-3,4′-piperidine]-4-sulfonamide trifluoroacetic acid salt] | 3.4 nM | 0.3 µM
